Legend:
Assay type in all cases: functional, organism-based
Plasmodium falciparum [1] = assay: Antiplasmodial activity against Plasmodium falciparum W2
Plasmodium falciparum [2] = assay: Antiplasmodial activity against Plasmodium falciparum D6
Plasmodium falciparum [3] = assay: Antimalarial activity against chloroquine resistant Plasmodium falciparum FcB1
Plasmodium falciparum [4] = assay: Antiplasmodial activity against Plasmodium falciparum NF54
Plasmodium falciparum [5] = assay: Antiplasmodial activity against Plasmodium falciparum TM91C235
Plasmodium falciparum [6] = assay: Antiplasmodial activity against Plasmodium falciparum FcM29
Plasmodium falciparum [7] = assay: Antiplasmodial activity against Plasmodium falciparum Nigerian
Plasmodium falciparum [8] = assay: Antiplasmodial activity against Plasmodium falciparum 3D7; conditions: for EC50: read-out: EC50

CCC1O[C@@H]2O[C@]3(C)CC[C@H]4[C@H](C)CC[C@@H]([C@H]1C)[C@@]24OO3 (some centres not stated)
IC50 (Plasmodium falciparum [1]): 0.29 ng/mL
IC50 (Plasmodium falciparum [2]): 1.09 ng/mL

CCOP(=O)(CCCN(O)C(=O)CC[C@H]1O[C@@H]2O[C@]3(C)CC[C@H]4[C@H](C)CC[C@@H]([C@H]1C)C24OO3)OCC
IC50 (Plasmodium falciparum [3]): 28000 nM

C[C@@H]1CC[C@H]2[C@@H](C)C(c3ccco3)O[C@@H]3O[C@]4(C)CC[C@@H]1[C@]32OO4 (some centres not stated)
IC50 (Plasmodium falciparum [4]): 1.4 nM

C[C@@H]1C[C@@H]2CC3(CC[C@@H]2C2CC[C@@]4(C)C(CC[C@@H]4[C@H](C)CCCNCCNc4ccnc5cc(Cl)ccc45)C21)OOC1(CCCCC1)OO3 (some centres not stated)
IC50 (Plasmodium falciparum [1]): 22.9 nM
IC90 (Plasmodium falciparum [1]): 30.3 nM
IC50 (Plasmodium falciparum [2]): 33.5 nM
IC90 (Plasmodium falciparum [2]): 103 nM
IC50 (Plasmodium falciparum [5]): 30.2 nM
IC90 (Plasmodium falciparum [5]): 160 nM

Clc1cc(NCCCN[C@@H]2C[C@@H]3CCC4(OO[C@@]5(c6ccccc6)CC(c6ccccc6)=C[C@H]5O4)[C@@H]3C2)c2ncccc2c1 (some centres not stated)
IC50 (Plasmodium falciparum [3]): 31 nM
IC50 (Plasmodium falciparum [6]): 31 nM
IC50 (Plasmodium falciparum [7]): 31 nM

C[C@H]1[C@@H](OC(=O)CCC(=O)Oc2ccc(Nc3ncnc4ccccc34)cc2)O[C@@H]2O[C@]3(C)CC[C@H]4[C@H](C)CC[C@@H]1[C@@]24OO3
EC50 (Plasmodium falciparum [8]): 3.8 nM

Clc1cc(NCCNC2CCC3(CC2)OO[C@@]2(c4ccccc4)CC(c4ccccc4)=C[C@H]2O3)c2ncccc2c1 (mixture of isomers)
IC50 (Plasmodium falciparum [3]): 22 nM
IC50 (Plasmodium falciparum [6]): 22 nM
IC50 (Plasmodium falciparum [7]): 22 nM

Clc1cc(NCCNC2CCC3(CC2)OOC2CCC=CC2O3)c2ncccc2c1 (configuration not stated)
IC50 (Plasmodium falciparum [3]): 36 nM
IC50 (Plasmodium falciparum [6]): 36 nM
IC50 (Plasmodium falciparum [7]): 36 nM

C1CN(c2nc(N3CCOCC3)nc(N3CCC4(CC3)OOC3(OO4)C4CC5CC(C4)CC3C5)n2)CCO1
IC50 (Plasmodium falciparum [8]): 4.12 nM

Clc1cc(NCCCN[C@H]2C[C@H]3CCC4(OO[C@@]5(c6ccccc6)CC(c6ccccc6)=C[C@H]5O4)[C@H]3C2)c2ncccc2c1 (some centres not stated)
IC50 (Plasmodium falciparum [3]): 63 nM
IC50 (Plasmodium falciparum [6]): 63 nM
IC50 (Plasmodium falciparum [7]): 63 nM

CCOP(=O)(CCCN(O)C(=O)CCC(=O)N(CCCNC(=O)CC[C@H]1O[C@@H]2O[C@]3(C)CC[C@H]4[C@H](C)CC[C@@H]([C@H]1C)C24OO3)CCCNC(=O)CC[C@H]1O[C@@H]2O[C@]3(C)CC[C@H]4[C@H](C)CC[C@@H]([C@H]1C)C24OO3)OCC
IC50 (Plasmodium falciparum [3]): 360 nM

CCCC1O[C@@H]2O[C@]3(C)CC[C@H]4[C@H](C)CC[C@@H]([C@H]1C)[C@@]24OO3 (some centres not stated)
IC50 (Plasmodium falciparum [1]): 0.16 ng/mL
IC50 (Plasmodium falciparum [2]): 0.41 ng/mL

CC(CCC1OOC(C)(C)C(C)(CI)O1)NCCNc1ccnc2cc(Cl)ccc12 (configuration not stated)
IC50 (Plasmodium falciparum [3]): 188 nM
IC50 (Plasmodium falciparum [6]): 188 nM
IC50 (Plasmodium falciparum [7]): 188 nM

C1CCC2(CC1)OOC1(CCN(c3nc(N4CCOCC4)nc(N4CCOCC4)n3)CC1)OO2
IC50 (Plasmodium falciparum [8]): 5.68 nM

C1CCCC2(CC1)OOC1(CCN(c3nc(N4CCOCC4)nc(N4CCOCC4)n3)CC1)OO2
IC50 (Plasmodium falciparum [8]): 5.71 nM

CC(C)CN(NC(=O)C1CCC2(CC1)OOC1(OO2)C2CC3CC(C2)CC1C3)c1ccnc(C#N)n1 (configuration not stated)
IC50 (Plasmodium falciparum [1]): 9.8 nM

C[C@H]1[C@@H](OC(=O)CCC(=O)Nc2cccc3ncnc(Nc4ccc(Cl)c(Cl)c4)c23)O[C@@H]2O[C@]3(C)CC[C@H]4[C@H](C)CC[C@@H]1[C@@]24OO3
EC50 (Plasmodium falciparum [8]): 2.4 nM

CC(=O)O[C@H]1CC2C(C3CC[C@H]([C@H](C)CCC(=O)NCCNc4ccnc5cc(Cl)ccc45)[C@]31C)[C@H](OC(C)=O)C[C@@H]1CC3(CC[C@H]21)OOC1(CCCCC1)OO3 (some centres not stated)
IC50 (Plasmodium falciparum [1]): 4.47 nM
IC90 (Plasmodium falciparum [1]): 10.5 nM
IC50 (Plasmodium falciparum [2]): 6.53 nM
IC90 (Plasmodium falciparum [2]): 10.6 nM
IC50 (Plasmodium falciparum [5]): 8.54 nM
IC90 (Plasmodium falciparum [5]): 17.2 nM

CCOP(=O)(CCCN(O)C(=O)CCC(=O)N(CCCCNC(=O)CC[C@H]1O[C@@H]2O[C@]3(C)CC[C@H]4[C@H](C)CC[C@@H]([C@H]1C)C24OO3)CCCNC(=O)CC[C@@H]1O[C@H]2O[C@@]3(C)CC[C@@H]4[C@@H](C)CC[C@H]([C@@H]1C)C24OO3)OCC
IC50 (Plasmodium falciparum [3]): 650 nM

C1CCC2(C1)OOC1(CCN(c3nc(N4CCOCC4)nc(N4CCOCC4)n3)CC1)OO2
IC50 (Plasmodium falciparum [8]): 5.52 nM
